Experimental data published in patent publication US20230091047A1 (priority 2019, published 2023).
Where two headings read alike, the source gives them in different places.

Key:
in vitro = type: cell-based; settings: HepG2 or HepG2.117 cells, ATPlite, mean value
In short: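 Luminescent ATP quantitation served as the viability endpoint following a 3- or 4-day incubation with test compounds.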

[1] = tested on: HBV (HepG2.117 cell line, inducibly HBV producing); experiment: Anti-HBV activity: intracellular HBV DNA by real-time PCR in HepG2.117 cells after 3 days of treatment; type: cell-based, hepatitis B virus; settings: Hepatitis B virus, HepG2.117, 72 h, read-out: EC50 (μM, mean value)
In short: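 Readout is intracellular HBV DNA, measured by real-time PCR with HBV-specific primers and probe after 3 days of exposure to serial compound dilutions. Cells are the stable HepG2.117 line, where HBV replication is induced in the absence of doxycycline.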

[2] = human, 3-days incubation (unmarked values)
[3] = HepG2.117 cells, 3 days of treatment, intracellular HBV DNA by real-time PCR, mean value
[4] = human, 3-days incubation (not marked with *)
[5] = HepG2.117 cells, intracellular HBV DNA by real-time PCR, 3 days of treatment, mean value

SMILES	CC50 at 3 days (in vitro; [2]) [µM]	EC50 [1, 3] [µM]	CC50 at 3 days (in vitro; [4]) [µM]	EC50 [1, 5] [µM]	further results
CNC(=O)c1ccc(-n2c(NC(C)C)nc3c(c2=O)C[C@@H](C)N(C(=O)c2ccc(Cl)c(Cl)c2)C3)cn1 [Compound C344]					CC50 at 3 days (in vitro; 3-days incubation (unmarked values)): > 50 µM; EC50 [1]: 0.15 µM
CNC(=O)c1ccc(-n2c(N(C)C34CC(C3)C4)nc3c(c2=O)C[C@@H](C)N(C(=O)c2ccc(Cl)c(Cl)c2)C3)cc1 [Compound C345, 4-[(6R)-2-[(bicyclo[1.1.1]pentan-1-yl)(methyl)amino]-7-(3,4-dichlorobenzoyl)-6-methyl-4-oxo-5,6,7,8-tetrahydropyrido[3,4-d]pyrimidin-3(4H)-yl]-N-methylbenzamide]	21.6	0.32			
CNC(=O)c1ccc(-n2c(NC(C)c3ccc(OC)cc3)nc3c(c2=O)C[C@@H](C)N(C(=O)c2ccc(Cl)c(Cl)c2)C3)cc1 (stereo partly drawn) [Compound C346, 4-[(6R)-7-(3,4-dichlorobenzoyl)-2-{[1-(4-methoxyphenyl)ethyl]amino}-6-methyl-4-oxo-5,6,7,8-tetrahydropyrido[3,4-d]pyrimidin-3(4H)-yl]-N-methylbenzamide]	36.3	0.13			
CNC(=O)c1ccc(-n2c(NC3CCC34CCC4)nc3c(c2=O)C[C@@H](C)N(C(=O)c2ccc(Cl)c(Cl)c2)C3)cc1 (stereo partly drawn) [Compound C347, 4-[(6R)-7-(3,4-dichlorobenzoyl)-6-methyl-4-oxo-2-[(spiro[3.3]heptan-1-yl)amino]-5,6,7,8-tetrahydropyrido[3,4-d]pyrimidin-3(4H)-yl]-N-methylbenzamide]	24.2	0.27			
CNC(=O)c1cc(-n2c(NC(C)C)nc3c(c2=O)C[C@@H](C)N(C(=O)c2ccc(Cl)c(Cl)c2)C3)n(C)n1 [Compound C354, 5-[(6R)-7-(3,4-dichlorobenzoyl)-6-methyl-4-oxo-2-[(propan-2-yl)amino]-5,6,7,8-tetrahydropyrido[3,4-d]pyrimidin-3(4H)-yl]-N,1-dimethyl-1H-pyrazole-3-carboxamide]	> 50	0.16			
CNC(=O)c1cc(-n2c(NC(C)C)nc3c(c2=O)C[C@@H](C)N(C(=O)c2ccc(Cl)c(Cl)c2)C3)[nH]n1 [Compound C355, 5-[(6R)-7-(3,4-dichlorobenzoyl)-6-methyl-4-oxo-2-[(propan-2-yl)amino]-5,6,7,8-tetrahydropyrido[3,4-d]pyrimidin-3(4H)-yl]-N-methyl-1H-pyrazole-3-carboxamide]	34.2	0.09			
CC(C)Nc1nc2c(c(=O)n1-c1ccc(S(C)(=O)=O)cc1)CCN(C(=O)c1ccc3cncn3c1)C2 [Compound C356]	> 50	> 50			
CC(C)Nc1nc2c(c(=O)n1-c1ccc(S(C)(=O)=O)cc1)CCN(C(=O)c1nc3ccccc3[nH]1)C2 [Compound C358]	> 50	> 50			
CC(C)Nc1nc2c(c(=O)n1-c1ccc(S(C)(=O)=O)cc1)CCN(C(=O)c1ccc3nccn3c1)C2 [Compound C359]	> 50	> 50			
CC(C)Nc1nc2c(c(=O)n1-c1ccc(S(C)(=O)=O)cc1)CCN(C(=O)C1Cc3ccccc3O1)C2 (stereo not shown) [Compound C360]	> 50	> 50			
CC(C)Nc1nc2c(c(=O)n1-c1ccc(S(C)(=O)=O)cc1)CCN(C(=O)c1ccn3cncc3c1)C2 [Compound C361]	> 50	> 50			
CC(C)Nc1nc2c(c(=O)n1-c1ccc(S(C)(=O)=O)cc1)CCN(C(=O)c1nc3ccccc3o1)C2 [Compound C362]	> 50	> 50			
CC(C)Nc1nc2c(c(=O)n1-c1ccc(S(C)(=O)=O)cc1)CCN(C(=O)c1ccc3ncn(C)c3c1)C2 [Compound C363]	> 50	> 50			
CC(C)Nc1nc2c(c(=O)n1-c1ccc(S(C)(=O)=O)cc1)CCN(C(=O)c1ccc3ocnc3c1)C2 [Compound C364]	> 50	> 7.2			
CC(C)Nc1nc2c(c(=O)n1-c1ccc(S(C)(=O)=O)cc1)CCN(C(=O)c1ccn3ncnc3c1)C2 [Compound C365]	> 50	> 10			
CC(C)Nc1nc2c(c(=O)n1-c1ccc(S(C)(=O)=O)cc1)CCN(C(=O)c1ccc3scnc3c1)C2 [Compound C366]	> 50	> 10			
CC(C)Nc1nc2c(c(=O)n1-c1ccc(S(C)(=O)=O)cc1)CCN(C(=O)c1ccc(C(F)(F)F)nc1)C2 [Compound C367]	> 50	> 10			
COC(=O)[C@H]1CC[C@H](n2c(NC(C)C)nc3c(c2=O)C[C@@H](C)N(C(=O)c2ccc(Cl)c(Cl)c2)C3)CC1 [Compound C370]	> 50	0.85			
Cc1noc(-c2ccc(-n3c(NC(C)C)nc4c(c3=O)C[C@@H](C)N(C(=O)c3ccc(Cl)c(Cl)c3)C4)cc2)n1 [Compound C371]	> 50	0.13			
CNC(=O)c1ccc(-n2c(NC(C)c3ccnn3C)nc3c(c2=O)C[C@@H](C)N(C(=O)c2ccc(Cl)c(Cl)c2)C3)cc1 (stereo partly shown) [Compound C372]	> 50	11.7			
CNC(=O)c1ccc(-n2c(N3CCC34CCC4)nc3c(c2=O)C[C@@H](C)N(C(=O)c2ccc(Cl)c(Cl)c2)C3)cc1 [Compound C373]	28.3	0.71			

SMILES	CC50 at 3 days (in vitro; [2]) [µM]	EC50 [1, 3] [µM]	CC50 at 3 days (in vitro; [4]) [µM]	EC50 [1, 5] [µM]	further results
CNC(=O)c1nnc(-n2c(NC(C)C)nc3c(c2=O)C[C@@H](C)N(C(=O)c2ccc(Cl)c(Cl)c2)C3)[nH]1 [Compound C374]	> 50	1.49			
CNC(=O)c1cc(Cl)c(-n2c(NC(C)C)nc3c(c2=O)C[C@@H](C)N(C(=O)c2ccc(Cl)c(Cl)c2)C3)c(Cl)c1 [Compound C376]	> 50	0.09			
CNC(=O)c1ccc(-n2c(NCc3cccnc3)nc3c(c2=O)C[C@@H](C)N(C(=O)c2ccc(Cl)c(Cl)c2)C3)cc1 [Compound C378]			> 50	5.73	
CNC(=O)c1csc(-n2c(NC(C)C)nc3c(c2=O)C[C@@H](C)N(C(=O)c2ccc(Cl)c(Cl)c2)C3)n1 [Compound C379]			22.1	0.22	
CNC(=O)c1ccc(-n2c(N[C@@H](C)c3ccc(F)cc3)nc3c(c2=O)C[C@@H](C)N(C(=O)c2ccc(Cl)c(Cl)c2)C3)cc1 [Compound C380]			15.7	0.1	
CNC(=O)c1ccc(-n2c(NCC3(C)CC3)nc3c(c2=O)C[C@@H](C)N(C(=O)c2ccc(Cl)c(Cl)c2)C3)cc1 [Compound C381]			31.8	0.95	
CC(C)NC(=O)c1cnc(-n2c(NC(C)C)nc3c(c2=O)C[C@@H](C)N(C(=O)c2ccc(Cl)c(Cl)c2)C3)nc1 [Compound C382]			> 50	0.05	
CC(C)Nc1nc2c(c(=O)[nH]1)C[C@@H](C)N(C(=O)c1ccc(Cl)c(Cl)c1)C2 [Compound C384]			> 50	0.75	
CC(C)Nc1nc2c(c(=O)n1-c1ccc(S(C)(=O)=O)c(C(F)F)c1)C[C@@H](C)N(C(=O)c1ccc(Cl)c(Cl)c1)C2 [Compound C385]			> 50	0.86	
CC(C)Nc1nc2c(c(=O)n1-c1ccc(S(=O)(=O)NC(C)C)cc1)C[C@@H](C)N(C(=O)c1ccc(Cl)c(Cl)c1)C2 [Compound C388]			> 50	0.62	
CNC(=O)c1ccc(-n2c(Nc3ccnn3C)nc3c(c2=O)C[C@@H](C)N(C(=O)c2ccc(Cl)c(Cl)c2)C3)cc1 [Compound C389]			> 50	> 10	
CNC(=O)c1ccc(-n2c(N[C@@H](C)C(C)C)nc3c(c2=O)C[C@@H](C)N(C(=O)c2ccc(Cl)c(Cl)c2)C3)cc1 [Compound C390]			26.5	0.08	
CNC(=O)c1cc(C)c(-n2c(NC(C)C)nc3c(c2=O)C[C@@H](C)N(C(=O)c2ccc(Cl)c(Cl)c2)C3)c(C)c1 [Compound C391]			> 50	0.18	
Cc1noc2cc(-n3c(NC(C)C)nc4c(c3=O)C[C@@H](C)N(C(=O)c3ccc(Cl)c(Cl)c3)C4)ccc12 [Compound C395]			> 50	0.15	
CNC(=O)c1ccc(-n2c(NC(C)(C)C3CC3)nc3c(c2=O)C[C@@H](C)N(C(=O)c2ccc(Cl)c(Cl)c2)C3)cc1 [Compound C396]			39.5	0.08	
CC[C@@H](C)Oc1nc2c(c(=O)n1-c1ccc(C(=O)NC)cc1)C[C@@H](C)N(C(=O)c1ccc(Cl)c(Cl)c1)C2 [Compound C397, 4-(R-2-(R-sec-butoxy)-7-(3,4-dichlorobenzoyl)-6-methyl-4-oxo-5,6,7,8-tetrahydropyrido[3,4-d]pyrimidin-3(4H)-yl)-N-methylbenzamide]			25.2	0.05	
CC[C@H](C)Oc1nc2c(c(=O)n1-c1ccc(C(=O)NC)cc1)C[C@@H](C)N(C(=O)c1ccc(Cl)c(Cl)c1)C2 [Compound C398]			25.3	0.1	
Cc1cc(-c2ncc[nH]2)ccc1-n1c(NC(C)C)nc2c(c1=O)C[C@@H](C)N(C(=O)c1ccc(Cl)c(Cl)c1)C2 [Compound C399]			25.2	0.24	
CC(C)Nc1nc2c(c(=O)n1-c1ccc(S(=O)(=O)Nc3ccccn3)cc1)C[C@@H](C)N(C(=O)c1ccc(Cl)c(Cl)c1)C2 [Compound C400]			> 50	1.15	
CNC(=O)c1ccc(-n2c(OC(C)C)nc3c(c2=O)C[C@@H](C)N(C(=O)c2ccc(Cl)c(Cl)c2)C3)c(Cl)c1 [Compound C403a]			36.7	0.06	
